Laboratory results from patent US8946158B2, “Treatments of gastrointestinal disorders” (Ironwood Pharmaceuticals, Inc., priority 2009, dated 2015).
Positions of bridges follow the written chain, without caps; N, C: chain ends. Non-standard residues stand in square brackets, D forms with d. Residues, ends and D or L forms follow the SMILES beside them. pS = N[C@@H](COP(=O)(O)O)C(=O)O

Legend:
[1] = In vitro metabolism in mouse jejunum loop fluid; type: in vitro ADME; conditions: for Rate of degradation relative to peptide 2: mouse intestinal fluid
Description: The purpose of this study was to determine the stability of phosphorylated peptides in mouse jejunal loop fluid. […] The isotopically labeled peptide 2 was synthesized with ^13C, ^15N-labeled alanine and leucine (i.e., with a sequence CCpS[^13C6,^15N]LCCNP[^13C6,^15N]ACTGC (SEQ ID NO:16)).
Each peptide was synthesized by American Peptide Company, Inc., and was stored desiccated at −20° C. A 1 mg/mL solution for each of the non-labeled peptides was prepared in 1 M tris(hydroxymethyl)aminomethane hydrochloride (Tris-HCl), pH 8 just prior to conducting the mouse intestinal loop fluid assay. A 500 ng/mL solution of ^13C, ^15N-labeled peptide 2 was prepared in 0.1% formic acid in water and was utilized to dilute the jejunum samples for post-assay LC-MS/MS analysis.
To collect the fluid, mice were fasted overnight with full access to water. They were then anesthetized with isofluorane for surgery and subjected to laparotomy in which the small intestine was exteriorized. Jejunum loops of 3 to 4 cm in length were made with sutures starting at 7 cm from the pyloric sphincter of the stomach. Once the loops were formed, they were injected with 200 μL of phosphate buffered saline (PBS) buffer (10 mM, pH 7.4). The abdominal wall and skin of the animals were then sutured, and the animals were allowed to recover for 30 minutes. Following recovery, the animals were sacrificed, the loops were then excised and the fluid inside was recovered and stored at −80° C. until use.
For each peptide, 25 μL of the 1 mg/mL peptide stock solution was added to 25 μL of 1 M Tris-HCl and 25 μL of 10× calf intestinal phosphatase (CIP) buffer containing 500 mM Tris-HCl, 1 M sodium chloride (NaCl), 0.1 mM magnesium chloride (MgCl2), pH 8. The reactions were initiated by adding 175 μL of the mouse jejunum loop fluid or 175 μL of the 1 M Tris-HCl pH8 buffer for the control reactions. The final concentration of each peptide was 100 μg/mL. The reactions were continuously mixed and maintained at 37° C. on a plate shaker. At 0, 2, 5, 10, 20, 30, 60, 90 and 120 minutes after adding the mouse intestinal loop fluid, a 25 μL aliquot was taken and added to 25 μL of 4° C. 12% trichloroacetic acid to stop the reaction. An additional 200 μL of 0.1% formic acid in water was added to these reactions for dilution purposes. These samples were then further diluted by taking 20 μL of each sample and adding it to 480 μL of 0.1% formic acid in water containing 500 ng/mL of the internal standard 13C, 15N-labeled peptide 2.
All samples were analyzed using an Applied Biosystems/MDS SCIEX API 4000 triple quadrupole mass spectrometer equipped with a high-performance liquid chromatography (HPLC) system. The mass spectrometer was operated in multiple reaction monitoring (MRM) mode, with resolution set to 1.2 Da. […]

[2] = target: T1, Calf intestinal alkaline phosphatase (CIP) (Bos taurus, UniProt P19111); assay: Alkaline phosphatase reaction (dephosphorylation of peptide substrates, LC-MS); type: in vitro ADME; conditions: with and without calf intestinal alkaline phosphatase; data not shown
T1 construct: purchased New England BioLabs M0290S
Description: For the alkaline phosphatase reactions, peptide stocks were prepared at 1 mg/mL in 0.1 M Tris-HCl pH 8, which were stored at −20° C. until assays were conducted. For the acid phosphatase reactions, peptide stocks were prepared at 1 mg/mL in 50 mM sodium phosphate pH 6, which was stored at −20° C. until assays were conducted.
Calf intestinal alkaline phosphatase (CIP) was obtained from New England BioLabs, Ipswich, Mass. Cat #M0290S. The CIP reaction solution was prepared by dilution with buffer (50 mM KCl, 10 mM Tris-HCl pH 8, 1 mM MgCl2, 50% glycerol) to 0.5 units/μL. The alkaline phosphatase reaction solutions were assembled in 20 μL quantities containing: • 2 μL 10× CIP buffer (1M NaCl, 500 mM Tris-HCl pH 8, 100 mM MgCl2) • 2 μL peptide stock (1 mg/mL) • 12 μL H2O • 4 μL alkaline phosphatase (0, 0.5 or 2 units)
The reaction solutions were mixed gently and incubated for 90 minutes at 37° C. These reaction solutions were stored at −20° C. until analysis. For analysis, the reaction solutions were diluted from […] of CIP treated peptide to 50 μL with 0.1% formic acid in water to a final concentration of 10 μM.
Control reactions were assembled for enzyme activity containing 10 mM p-nitrophenylphosphate in place of peptide. After incubation, the reactions were diluted with 0.1 mL of 100 mM borate buffer pH 9 and read at the absorbance of 405 nm to monitor p-nitrophenol appearance.

[3] = tested on: upper GI transit in mice; assay: Gastrointestinal transit in mice (charcoal meal); type: in vivo; conditions: female CD-1 mice; oral gavage; distance travelled by charcoal front, % of small intestine
Description: The purpose of the assay was to test the effect of the guanylate cyclase C agonist peptides on in vivo gastrointestinal transit in mice.
For the assay, female CD-1 mice (n=10 per group) weighing 25-30 g were fasted overnight and given access to water ad libitum. Activated charcoal (20 g; 100 mesh; Sigma cat #242276) was suspended in 200 mL gum arabic (100 mg/mL), and stirred for at least one hour. Test peptides were prepared in a 20 mM Tris pH 6.9 vehicle.
Test peptide and vehicle were administered in 200 μL doses by oral gavage. Seven minutes after dosing the test peptides, 200 μL of the charcoal/gum arabic suspension was dosed by oral gavage. […] The total length of the small intestine was measured from the pyloric junction to the ileocaecal junction. The distance travelled by the charcoal was measured from the pyloric junction to the charcoal front. The Distance Travelled (%) was determined as (distance travelled by charcoal/total length of the small intestine)×100. Data were entered into the GraphPad Prism software program and analyzed by ANOVA using a Bonferroni multiple comparison test post-hoc. Plots of data and ED50 were also determined using the GraphPad Prism software package.
The dose-dependent effects of acute doses of Peptide 4, Peptide 1, Peptide 2, the dephosphorylated form of Peptide 1 and the dephosphorylated form of Peptide 2 on GI transit were determined in female CD mice. […]

[4] = tested on: ligated rat duodenal loops; assay: Fluid secretion in rat intestinal loops; type: in vivo; conditions: 2.5 μg of peptide per loop
Description: The effect of GC-C agonist peptides on secretion were studied by injecting GC-C agonist peptides described herein directly into an isolated loop in wild-type rats.
Loops were isolated by surgically ligating three loops in the small intestine of the rat. The methodology for ligated loop formation was similar to that described in (London et al., 1997, Am J Physiol, p. G93-105). The loops were roughly centered and at lengths of 1-3 cm. The loops were injected with 200 μl of either peptide/GC-C agonist (0.1-5 μg) or vehicle (20 mM Tris, pH 7.5 or Krebs Ringer, 10 mM Glucose, HEPES buffer (KRGH)). Following a recovery time of up to 90 minutes the loops were excised. Weights were recorded for each loop before and after removal of the fluid contained therein. The length of each loop was also recorded. A weight to length ratio (W/L) for each loop was calculated to determine the effects of the GC-C agonist peptide described herein on secretion. Loop fluid volume was also determined.
Data showing increases in fluid secretion, pH increase and bicarbonate secretion in ligated duodenal loops in rats are shown in FIG. 2 and Table 8. […] Table 8 provides the results in ligated rat duodenal loops using 2.5 μg of peptide per loop.

T1 sequence (P19111 20-506): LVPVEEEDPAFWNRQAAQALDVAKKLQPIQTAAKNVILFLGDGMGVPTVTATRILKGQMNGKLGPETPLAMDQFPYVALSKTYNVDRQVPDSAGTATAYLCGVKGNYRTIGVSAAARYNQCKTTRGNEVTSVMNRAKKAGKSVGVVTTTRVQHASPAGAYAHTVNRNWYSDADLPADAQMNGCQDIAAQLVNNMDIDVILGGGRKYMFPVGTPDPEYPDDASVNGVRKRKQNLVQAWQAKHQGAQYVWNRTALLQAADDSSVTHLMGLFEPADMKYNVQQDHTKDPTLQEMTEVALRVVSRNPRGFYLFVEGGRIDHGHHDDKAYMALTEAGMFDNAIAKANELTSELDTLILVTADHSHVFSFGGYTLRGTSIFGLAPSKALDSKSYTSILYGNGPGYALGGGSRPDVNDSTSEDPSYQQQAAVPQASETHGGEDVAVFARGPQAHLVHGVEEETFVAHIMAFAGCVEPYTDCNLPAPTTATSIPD

In the case of `CC(C)C[C@@H]1NC(=O)[C@H](COP(=O)(O)O)NC(=O)[C@@H]2CSSC[C@@H]3NC(=O)[C@H](C)NC(=O)[C@@H]4CCCN4C(=O)[C@H](CC(N)=O)NC(=O)[C@H](CSSC[C@H](N)C(=O)N2)NC(=O)[C@H](CSSC[C@@H](C(=O)O)NC(=O)CNC(=O)[C@H]([C@@H](C)O)NC3=O)NC1=O` [Peptide 2, CCpSLCCNPACTGC] (H-CC[pS]LCCNPACTGC-OH; disulfide 1-6, 2-10, 5-13 (inferred); N-terminus and C-terminus assumed), the Metabolite formation ([1]; mouse jejunum loop fluid at 37° C.) is reported as “Formation of dephospho-peptide 2 was observed”.

With `CC(C)C[C@@H]1NC(=O)[C@H](CCC(=O)O)NC(=O)[C@@H]2CSSC[C@@H]3NC(=O)[C@H](C)NC(=O)[C@@H]4CCCN4C(=O)[C@H](CC(N)=O)NC(=O)[C@H](CSSC[C@H](N)C(=O)N2)NC(=O)[C@H](CSSC[C@@H](C(=O)N[C@@H](Cc2ccc(O)cc2)C(=O)O)NC(=O)CNC(=O)[C@H]([C@@H](C)O)NC3=O)NC1=O` [Peptide 3, CCELCCNPACTGCY] (H-CCELCCNPACTGCY-OH; disulfide 1-6, 2-10, 5-13 (inferred); N-terminus and C-terminus assumed) the “Effect of CIP treatment on peptide (LC-MS)” value [2] was “not affected”, the “Rate of degradation relative to peptide 2” value [1] was “degraded faster in mouse intestinal fluid than peptide 2” and the “Peptide remaining (detection)” value ([1]; mouse jejunum fluid, after 90 minutes, 37° C.) was “not detected”.

With `CC(C)C[C@@H]1NC(=O)[C@H](CO)NC(=O)[C@@H]2CSSC[C@@H]3NC(=O)[C@H](C)NC(=O)[C@@H]4CCCN4C(=O)[C@H](CC(N)=O)NC(=O)[C@H](CSSC[C@H](N)C(=O)N2)NC(=O)[C@H](CSSC[C@@H](C(=O)O)NC(=O)CNC(=O)[C@H]([C@@H](C)O)NC3=O)NC1=O` [Dephospho-Peptide 2, CCSLCCNPACTGC] (H-CCSLCCNPACTGC-OH; disulfide 1-6, 2-10, 5-13 (inferred); N-terminus and C-terminus assumed) the “Rate of degradation relative to peptide 2” value [1] was “degraded faster in mouse intestinal fluid than peptide 2”.

With “CCEFCCNPACTGCY (Synthetically generated peptide (Peptide 4))” the “ED50, acceleration of upper GI transit in mice” value [3] was 2.06 µg/kg, the “Rate of HCO3− accumulation” value [4] was 0.00008 Meq/min/cm and the “Rate of fluid accumulation” value [4] was 2.0 µL/min/cm. The pH [4] was 8.2.
